# Reference: patent publication US6040149A, “Assay for identifying agents which act on the ceramide-activated protein kinase, kinase suppressor of ras, and methods of using said agents” (priority 1997, dated 2000)
# Experiments:
# [1] = target: T1, KSR (Mus musculus, UniProt Q61097); assay: Phosphorylation and activation of recombinant Raf-1 by KSR immunoprecipitated from treated COS-7 cells; format: cell-based, mouse (KSR expressed in COS-7 cells); conditions: C2-ceramide 1 μM; TNFα 10 nM
# T1 sequence (Q61097 1-873): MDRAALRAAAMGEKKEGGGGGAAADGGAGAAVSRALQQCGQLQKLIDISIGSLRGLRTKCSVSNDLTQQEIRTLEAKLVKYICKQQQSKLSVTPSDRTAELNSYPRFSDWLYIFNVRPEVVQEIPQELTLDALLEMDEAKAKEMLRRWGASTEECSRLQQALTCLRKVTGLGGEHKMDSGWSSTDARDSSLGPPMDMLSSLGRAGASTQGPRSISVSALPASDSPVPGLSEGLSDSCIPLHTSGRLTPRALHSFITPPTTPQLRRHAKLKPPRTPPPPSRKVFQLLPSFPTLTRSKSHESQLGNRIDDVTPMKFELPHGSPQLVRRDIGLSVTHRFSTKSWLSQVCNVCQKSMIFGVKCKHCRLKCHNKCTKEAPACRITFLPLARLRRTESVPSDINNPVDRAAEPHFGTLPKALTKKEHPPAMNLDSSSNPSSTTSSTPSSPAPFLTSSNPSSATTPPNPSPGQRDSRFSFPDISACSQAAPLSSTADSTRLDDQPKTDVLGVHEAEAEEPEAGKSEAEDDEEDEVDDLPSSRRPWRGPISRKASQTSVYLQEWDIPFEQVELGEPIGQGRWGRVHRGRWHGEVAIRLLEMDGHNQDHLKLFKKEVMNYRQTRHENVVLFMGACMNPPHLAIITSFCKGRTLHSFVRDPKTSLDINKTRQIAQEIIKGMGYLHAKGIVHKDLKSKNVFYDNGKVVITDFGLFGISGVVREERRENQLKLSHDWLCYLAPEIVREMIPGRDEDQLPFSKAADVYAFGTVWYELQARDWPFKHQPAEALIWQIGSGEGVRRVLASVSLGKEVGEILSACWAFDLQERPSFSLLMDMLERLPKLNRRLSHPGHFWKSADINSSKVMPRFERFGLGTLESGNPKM
# Protocol: FIGS. 23B-23C--COS-7 cells expressing Flag-tagged KSR were stimulated with 1 μM C2-ceramide for 10 min and lysed with NP-40 buffer as in FIG. 23A. […] The autoradiogram was exposed for 1 hour. Data represent one of three experiments.
# (§1) COS-7 cells expressing Flag-tagged KSR were stimulated with 10 nM TNFα for the times indicated and lysed with NP-40 buffer as in FIG. 2A. […] The autoradiogram was exposed for 1 hour. Data represent one of three similar experiments.
# Immunoprecipitated KSR was incubated with reaction buffer A containing 0.5 mM ATP and a protein kinase inhibitor cocktail [20 μM PKC inhibitor peptide (UBI), 2 μM protein kinase A inhibitor peptide (UBI) and 20 μM R24571 (Sigma)] for 30 min at 22° C.
# [2] = target: T1, KSR; assay: KSR autophosphorylation after treatment of COS-7 cells expressing KSR; format: cell-based, mouse (KSR expressed in COS-7 cells); conditions: TNFα 10 nM
# Protocol: FIG. 23A--COS-7 cells were transfected as in FIG. 22A and placed in serum-free medium. After 4 hours, cells were stimulated for 10 min with the ceramide analog, C2-ceramide (Biomol), at the concentrations indicated. Cells were lysed with NP-40 lysis buffer, and Flag-tagged KSR (0.8 mg protein for each point) was immunoprecipitated and assayed for autophosphorylation activity as described in Experimental Procedures. The autoradiogram was exposed for 1 hour. KSR is expressed at similar levels in each sample as monitored by Western blot (data not shown). Data represent one of three similar experiments.
# as §1
# KSR was immunoprecipitated as above from 0.8 mg NP-40 lysate protein with 40 μl agarose-conjugated anti-Flag antibody at 4° C. for 4 hrs or overnight. […] The reaction was stopped by addition of Laemmli sample buffer. Samples were resolved by 7.5% sodium dodecyl sulfate-polyacrylamide gel electrophoresis (SDS-PAGE) and autoradiographed.
substance,measurement,setting,value
TNF-α,activity of immunoprecipitated KSR to phosphorylate and activate Raf-1,[1],stimulated dramatically
same,KSR autophosphorylating activity,[2],time-dependent enhancement
same,time to maximal effect,"[2]; autophosphorylation, Raf-1 phosphorylation and activation",≤ 20 min
